# Data published in patent US11406707B2, “STAT3 phosphorylation during graft-versus-host disease” (H. LEE MOFFITT CANCER CENTER AND RESEARCH INSTITUTE, INC., priority 2014, dated 2022).
# Key:
# [1] = system: allostimulated T-cell proliferation; experiment: Primary 5-day alloMLR T-cell proliferation; assay type: cell-based, human
# Description: Bulk donor T-cells were allostimulated with cytokine-matured, allogeneic moDCs at a DC:T-cell ratio of 1:30 as previously described (Florida Blood Services) [Betts, B C, et al. (2011) Blood 118:5330-9; Betts, B C, et al. […] Betts, B C, et al. (2011) Blood 118:5340-3]. […] Lower doses of each drug were used in these experiments to mimic expected physiologic concentrations [Siddiquee, K, et al. (2007) Proceedings of the National Academy of Sciences of the United States of America 104:7391-6; Zeiser, R, et al. (2008) Blood 111:453-62], and to better detect potential synergistic activity with the combination of rapamycin and S3I-201. After 5 days of culture at […]-cell proliferation was measured by a colorimetric assay per the manufacturer's instructions (CellTiter 96 Aqueous One Solution Cell Proliferation Assay [MTS]; Promega, Madison, Wis. USA) [Betts, B C, et al. (2011) Blood 118:5330-9; Betts, B C, et al. […] Betts, B C, et al. (2011) Blood 118:5340-3]. Absorbance/optical density (OD) was analyzed at 490 nm. Secondary alloMLR: […] Following priming, the T-cells were then rested and re-cultured with fresh first-party moDCs (DC:T-cell ratio of 1:30). […] After 3 days, T-cell proliferation was measured by a colorimetric assay as described (Promega). T-cells alone and PHA-stimulated T-cells served as negative and positive controls, respectively, for both the primary and secondary alloMLRs.
# [2] = S3I-201 treatment of GVHD in vivo (B6 marrow +/- T-cells into Balb/c mice)
# Description: (§1) FIG. 7. B6 T-cell depleted marrow (+/− T-cells) were given to Balb/c mice. S3I-201 or vehicle was given by i.p. from day 0 to day +7 only. Mice were then followed for body weight (FIG. 7B), GVHD clinical scores (FIGS. 7C, 7D), and survival (FIG. 7A).
# as §1, with “B6” for “FIG. 7. B6”, “7A). […] All of the GVHD control mice (i.e., TCD marrow+T-cells+vehicle) have since died of GVHD.” for “7A).”
# STAT3 = molecular target: T1, STAT3 (Homo sapiens, UniProt P40763); experiment: IL-6-pulsed STAT3 phosphorylation in alloactivated T cells (flow cytometry); assay type: cell-based
# T1 construct: endogenous in cells; host or cells: primary human T cells from healthy-donor PBMC, allostimulated by monocyte-derived dendritic cells
# Description: To confirm selective STAT3 inhibition, T cells were first briefly allostimulated by moDCs (DC:T cell ratio 1:30) and then pulsed with the relevant STAT3- or -5-dependent cytokine in the presence or absence of S3I-201. The 3-day exposure to allogenic moDCs allows the responding T cells to increase CD25 expression and capacity to receive IL-2 signaling, while resting or stimulated T cells phosphorylate STAT3 in response to IL-6 [Betts, B. C., et al. (2011) Blood 118, 5330-5339]. DC-allostimulated T cells (1×10^6) were then exposed to S3I-201 (50 or 100 μM) or DMSO for 4 h in serum-free RPMI (Corning Cellgro) to reduce background phosphorylation, followed by a 15 min pulse with IL-6 (4000 IU/ml) or -2 (50 IU/ml). T-cell STAT phosphorylation was determined by surface staining for CD3, followed by fixation (CytoFix; BD Biosciences), permeabilization with cold methanol, and intracellular staining for STAT3 and -5. The phosphorylated STAT3 and -5 geometric MFI ratio was calculated by dividing the geometric MFI of the cytokine-pulsed cells by the geometric MFI of the corresponding fluorochrome isotype.
# [3] = system: DC-allosensitized T-cell proliferation; experiment: allo-MLR T-cell proliferation (colorimetric MTS assay, stimulation index); assay type: cell-based, human; settings: for T-cell proliferation: day 5
# Method: Allo-MLRs consisted of T cells stimulated by cytokine-mature moDCs (DC:T-cell ratio 1:30, 1×10^5 T cells per 100 μl medium in a 96-well plate, 37° C.). […] The allogeneic moDC stimulators were matured with a cytokine cocktail and terminally differentiated, eliminating the need for irradiation [Betts, B. C., et al. (2011) Blood 118, 5330-5339]. T-cell proliferation was quantified by a colorimetric assay (CellTiter 96 AQueous One Solution Cell Proliferation Assay [MTS]; Promega, Madison, Wis.) on day 5, per the manufacturer's instructions, with absorbance quantified at 490 nm [Betts, B. C., et al. (2011) Blood 118, 5330-5339]. The stimulation index was calculated by dividing the OD of the allo-MLR by the OD of T cells alone. PHA-stimulated T cells served as a positive control. Identical allo-MLRs were cultured with CAS 285986-31-4, to determine the dose-response effect of STAT5 inhibition on allostimulated T-cell growth. For these initial experiments, the cultures were analyzed on day 4 because of the early rapid T-cell proliferation among the STAT5 inhibitor-treated wells. The stimulation index was determined as described.
# STAT3 Y705 = molecular target: T2, STAT3 Y705 (Homo sapiens, UniProt P40763); experiment: IL-6-STAT3 Y705 phosphorylation in DC-allostimulated donor T-cells; assay type: cell-based; settings: S3I-201 50 uM, 4 hours, IL-6 pulse
# T2 construct: endogenous in cells; host or cells: primary human T cells from healthy-donor PBMC, allostimulated by monocyte-derived dendritic cells
# Method: T-cells were serum-starved in RPMI treated with DMSO diluent control, rapamycin 100 ng/ml (EMD Millipore, Billerica, Mass. USA), or STAT3 inhibitor S3I-201 50 uM (H. Lee Moffitt Cancer Center, Drug Discovery Core) for 4 hours. For the STAT3 experiments, the T-cells were first DC-allostimulated (DC:T-cell ratio of 1:30) for 3 days to optimize surface expression of IL-6 receptor alpha and STAT3 signaling among healthy volunteers. The T-cells were then cytokine-pulsed for 15 minutes with either IL-2 (R&D Systems) to activate the Akt-mTOR-S6 pathway, or IL-6 to stimulate STAT3 phosphorylation. The cells were then fixed and permeabilized as described, and then stained for CD3, CD4 (STAT3 experiments), phosphorylated STAT3 Y705, and phosphorylated S6.
# STAT5 = STAT5 phosphorylation in CD4+ T cells of 5 day allo-MLRs without exogenous cytokine; assay type: cell-based, human
# Method: No exogenous cytokine was added. DC-allosensitized T cells were harvested on day 5. […] The ratio of CD4^+, pSTAT5^Bright to CD4^+, pSTAT3^+ T cells was calculated by percentage of phosphorylation.
# [4] = S3I-201 50 or 100 μM, 5 day allo-MLR
# T1 sequence (P40763 whole entry): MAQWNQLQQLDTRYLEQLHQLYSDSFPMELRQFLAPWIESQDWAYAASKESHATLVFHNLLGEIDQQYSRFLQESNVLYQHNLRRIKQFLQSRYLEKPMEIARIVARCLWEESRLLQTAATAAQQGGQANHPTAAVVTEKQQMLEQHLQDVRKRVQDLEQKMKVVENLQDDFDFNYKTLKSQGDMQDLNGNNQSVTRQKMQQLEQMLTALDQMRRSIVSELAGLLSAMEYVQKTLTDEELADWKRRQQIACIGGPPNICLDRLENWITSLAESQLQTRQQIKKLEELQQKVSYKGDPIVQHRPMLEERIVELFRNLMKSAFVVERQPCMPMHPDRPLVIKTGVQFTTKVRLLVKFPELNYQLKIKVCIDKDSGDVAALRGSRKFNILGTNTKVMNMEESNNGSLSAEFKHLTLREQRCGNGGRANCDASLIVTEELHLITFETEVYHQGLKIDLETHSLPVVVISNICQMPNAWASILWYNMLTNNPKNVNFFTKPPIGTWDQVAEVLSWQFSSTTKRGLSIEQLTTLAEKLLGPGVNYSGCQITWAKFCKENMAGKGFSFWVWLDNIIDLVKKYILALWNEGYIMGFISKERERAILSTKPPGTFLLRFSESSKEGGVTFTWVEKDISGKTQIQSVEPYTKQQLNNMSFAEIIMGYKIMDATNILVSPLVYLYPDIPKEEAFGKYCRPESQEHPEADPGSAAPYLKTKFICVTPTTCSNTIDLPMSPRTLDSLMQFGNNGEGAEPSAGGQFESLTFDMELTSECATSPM
# T2 sequence (P40763 whole entry): as above
structure (smiles),measurement,setting,value
Cc1ccc(S(=O)(=O)OCC(=O)Nc2ccc(C(=O)O)c(O)c2)cc1 [S3I-201],allostimulated T-cell proliferation,[1]; S3I-201 50 uM single agent,significantly reduced
same,alloreactive T-cell proliferation,[1]; S3I-201 below 50 μM single agent,no effect
same,tolerability,[2]; 2.5 mg/kg i.p. day 0 to day +7,well tolerated
same,tolerability,[2]; 5 mg/kg i.p. day 0 to day +7,toxic
same,survival,"[2]; S3I-201 i.p. day 0 to day +7, GVHD control mice all died",alive at day +53
same,IL-6-mediated STAT3 signaling,"STAT3; S3I-201 50 and 100 μM, 4 h, 15 min IL-6 pulse",inhibited
same,concentration giving the highest degree of STAT3 inhibition selectivity,STAT3; STAT3 vs STAT5 phosphorylation,50 µM
same,reduction in T-cell proliferation,"[3]; S3I-201 50 μM added once day 0, readout day 5",50%
same,T-cell proliferation,[3]; S3I-201 100 μM,complete impairment
same,T-cell proliferation,[3]; S3I-201 1 or 10 μM,little effect
same,T-cell proliferation in allo-MLRs compared with DMSO,"[3]; S3I-201 50 or 100 μM, FIG. 1B",significantly reduced
same,IL-6-mediated STAT3 phosphorylation of Y705,STAT3 Y705,significantly decreased
same,"CD4+, pSTAT5Bright population",STAT5; S3I-201 100 μM,trend in reduced STAT5 phosphorylation
same,STAT5 activation in response to DC allostimuli,STAT5; [4],preserved
same,"ratio of CD4+, pSTAT5Bright to CD4+, pSTAT3+ T cells",STAT5; [4],"robust, dose-dependent polarization"
same,"CD4+, pSTAT5Bright population","STAT5; S3I-201 vs DMSO, 5 day allo-MLR",maintained
